In brackets after ≈: the same amount, converted by molar mass. Where two headings read alike, the source gives them in different places.
What was measured:
[1] = Ferric reducing ability of plasma (FRAP); details: 10 mg/mL antrocin
Method: The following methodology describes the FRAP assay: Add 10 µL of sample to a 96-well plate. For each sample, a parallel sample was prepared as a sample background control. Add 4 µL of FRAP Positive Control to each well and make up to 10 µL with FRAP Assay Buffer. For standard curve preparation, add 0, 2, 4, 6, 8, and 10 µL of a 2 mM ferrous standard solution to the wells of a 96-well plate to generate 0, 4, 8, 12, 16, and 20 nmol/well of ferrous iron, respectively. Adjust the volume to 10 µL/well with FRAP Assay Buffer. Mix sufficient reagents for the number of tests to be performed, including: Add 190 µL of Reaction Mix to the wells of the standard curve, positive control, and test samples. Add 190 µL Background Control Mix to the sample background control wells and mix well. After 60 min of reaction at 37 °C, measure the absorbance at 594 nm. Subtract 0 nmol standard readings from all standard curve readings to draw a ferrous standard curve. If the sample background control is significant, subtract the background control reading from its paired sample reading. Apply the sample OD value to the ferrous standard curve to obtain the reduced ferrous ion B nmol generated during the reaction.
Use the following calculation to determine the mM ferrous equivalence of the sample.
Sample FRAP or mM ferrous equivalents = B × D/V = nmol/µL(2) […]

[2] = Solubility in 95% ethanol; assay type: physicochemical; details: organic solvent or mixture
Method: Optical pure antrocin, with a purity > 95%, was provided by Professor Zhen Yang at the School of Chemical Biology and Biotechnology, Peking University. […] A 50 mg/mL ethanol solution of antrocin was prepared as a stock solution, and was diluted before testing. All of the samples were stored at 4 °C.

[3] = tested on: Salmonella typhimurium TA100
[4] = tested on: five different strains of Salmonella typhimurium; assay: Bacterial toxicity test prior to the Ames test; details: all tester strains
[5] = tested on: Salmonella typhimurium TA102; assay: Ames test (plate incorporation), TA102
Sprague Dawley rats = assay: 28-day oral toxicity test: serum biochemistry
[6] = female rats, 7.5 mg/kg oral 28 d
[7] = female rats, 37.5 mg/kg oral 28 d
[8] = male rats, 37.5 mg/kg oral 28 d

C=C1CC[C@H]2C(C)(C)CCC[C@@]23C(=O)OC[C@@H]13 [Antrocin, (-)-Antrocin]
Ferric Reducing Ability of Plasma (mM Ferrous Equivalent) [1]: 0.218 ± 0.004 mM Ferrous Equivalent
solubility [2]: ~133 mg/mL (≈ 568 mM)
Number of Revertant ([3]; TA100, with S9, 0.003125 mg/plate): 194.3 ± 5.4 Colony/Plate
Number of Revertant ([3]; TA100, with S9, 0.00625 mg/plate): 185.0 ± 6.5 Colony/Plate
Number of Revertant ([3]; TA100, with S9, 0.025 mg/plate): 197.0 ± 8.8 Colony/Plate
Number of Revertant ([3]; TA100, with S9, 0.05 mg/plate): 195.3 ± 2.9 Colony/Plate
Number of Revertant ([3]; TA100, without S9, 0.003125 mg/plate): 170.7 ± 1.2 Colony/Plate
Number of Revertant ([3]; TA100, without S9, 0.00625 mg/plate): 169.3 ± 8.2 Colony/Plate
Number of Revertant ([3]; TA100, without S9, 0.025 mg/plate): 181.7 ± 5.7 Colony/Plate
Number of Revertant ([3]; TA100, without S9, 0.05 mg/plate): 166.7 ± 4.5 Colony/Plate
bacterial mutagenicity ([3]; preliminary tests, TA100, 100 μg/plate): no bacterial mutagenicity
maximum non-toxic concentration [4]: 0.05 mg/plate
Number of Revertant ([5]; TA102, with S9, 0.003125 mg/plate): 352.0 ± 8.5 Colony/Plate
Number of Revertant ([5]; TA102, with S9, 0.00625 mg/plate): 326.7 ± 5.9 Colony/Plate
Number of Revertant ([5]; TA102, with S9, 0.025 mg/plate): 327.3 ± 7.7 Colony/Plate
Number of Revertant ([5]; TA102, with S9, 0.05 mg/plate): 322.0 ± 6.2 Colony/Plate
Number of Revertant ([5]; TA102, without S9, 0.003125 mg/plate): 245.7 ± 10.4 Colony/Plate
Number of Revertant ([5]; TA102, without S9, 0.00625 mg/plate): 246.0 ± 16.4 Colony/Plate
Number of Revertant ([5]; TA102, without S9, 0.025 mg/plate): 278.3 ± 4.5 Colony/Plate
Number of Revertant ([5]; TA102, without S9, 0.05 mg/plate): 270.0 ± 11.2 Colony/Plate
A/G (Sprague Dawley rats; [6]): 1.9 ± 0.2
ALP (Sprague Dawley rats; [6]): 147.4 ± 27.6 U/L
ALT (Sprague Dawley rats; [6]): 24.2 ± 1.9 U/L
AST (Sprague Dawley rats; [6]): 58.0 ± 8.5 U/L
Albumin (Sprague Dawley rats; [6]): 3.7 ± 0.2 g/dL
Amylase (Sprague Dawley rats; [6]): 1280.6 ± 111.3 U/L
BUN (Sprague Dawley rats; [6]): 12.0 ± 1.0 mg/dL
CK (Sprague Dawley rats; [6]): 100.2 ± 30.8 U/L
Ca^2+ (Sprague Dawley rats; [6]): 9.9 ± 0.1 mg/dL
Cholesterol (Sprague Dawley rats; [6]): 51.2 ± 9.8 mg/dL
Creatinine (Sprague Dawley rats; [6]): 0.4 ± 0.0 mg/dL
GGT (Sprague Dawley rats; [6]): 1–2 U/L
Globulin (Sprague Dawley rats; [6]): 1.9 ± 0.1 g/dL
Glucose (Sprague Dawley rats; [6]): 182.4 ± 42.9 mg/dL
HDL-C (Sprague Dawley rats; [6]): 16.0 ± 3.4 mg/dL
K^+ (Sprague Dawley rats; [6]): 5.2 ± 0.2
LDH (Sprague Dawley rats; [6]): 92.4 ± 73.8 U/L
Mg^2+ (Sprague Dawley rats; [6]): 2.1 ± 0.1
Na^+ (Sprague Dawley rats; [6]): 139.2 ± 1.6
Phosphate (Sprague Dawley rats; [6]): 8.5 ± 1.0 mg/dL
TB (Sprague Dawley rats; [6]): <0.1 mg/dL
TG (Sprague Dawley rats; [6]): 32.8 ± 5.2 mg/dL
TP (Sprague Dawley rats; [6]): 5.6 ± 0.2
UA (Sprague Dawley rats; [6]): 0.9 ± 0.1 mg/dL
A/G (Sprague Dawley rats; [7]): 1.7 ± 0.1
ALP (Sprague Dawley rats; [7]): 116.4 ± 35.7 U/L
ALT (Sprague Dawley rats; [7]): 32.6 ± 6.2 U/L
AST (Sprague Dawley rats; [7]): 72.6 ± 7.4 U/L
Albumin (Sprague Dawley rats; [7]): 3.8 ± 0.2 g/dL
Amylase (Sprague Dawley rats; [7]): 1240.4 ± 239.9 U/L
BUN (Sprague Dawley rats; [7]): 11.0 ± 0.7 mg/dL
CK (Sprague Dawley rats; [7]): 129.8 ± 59.5 U/L
Ca^2+ (Sprague Dawley rats; [7]): 10.2 ± 0.2 mg/dL
Cholesterol (Sprague Dawley rats; [7]): 47.0 ± 11.8 mg/dL
Cl^− (Sprague Dawley rats; [7]): 104.2 ± 1.3
Creatinine (Sprague Dawley rats; [7]): 0.3 ± 0.1 mg/dL
GGT (Sprague Dawley rats; [7]): 1–2 U/L
Globulin (Sprague Dawley rats; [7]): 2.2 ± 0.1 g/dL
Glucose (Sprague Dawley rats; [7]): 138.2 ± 21.7 mg/dL
HDL-C (Sprague Dawley rats; [7]): 14.6 ± 3.8 mg/dL
K^+ (Sprague Dawley rats; [7]): 5.0 ± 0.7
LDH (Sprague Dawley rats; [7]): 125.4 ± 96.2 U/L
Mg^2+ (Sprague Dawley rats; [7]): 2.4 ± 0.3
Na^+ (Sprague Dawley rats; [7]): 142.6 ± 1.1
Phosphate (Sprague Dawley rats; [7]): 8.5 ± 0.5 mg/dL
TB (Sprague Dawley rats; [7]): <0.1 mg/dL
TG (Sprague Dawley rats; [7]): 27.2 ± 8.1 mg/dL
TP (Sprague Dawley rats; [7]): 6.0 ± 0.3
UA (Sprague Dawley rats; [7]): 1.3 ± 0.6 mg/dL
A/G (Sprague Dawley rats; male rats, 7.5 mg/kg oral 28 d): 1.8 ± 0.1
ALP (Sprague Dawley rats; male rats, 7.5 mg/kg oral 28 d): 238.4 ± 43.9 U/L
ALT (Sprague Dawley rats; male rats, 7.5 mg/kg oral 28 d): 28.2 ± 3.1 U/L
AST (Sprague Dawley rats; male rats, 7.5 mg/kg oral 28 d): 61.4 ± 4.3 U/L
Albumin (Sprague Dawley rats; male rats, 7.5 mg/kg oral 28 d): 3.4 ± 0.1 g/dL
Amylase (Sprague Dawley rats; male rats, 7.5 mg/kg oral 28 d): 1931.0 ± 241.1 U/L
BUN (Sprague Dawley rats; male rats, 7.5 mg/kg oral 28 d): 11.2 ± 1.3 mg/dL
CK (Sprague Dawley rats; male rats, 7.5 mg/kg oral 28 d): 185.6 ± 96.1 U/L
Ca^2+ (Sprague Dawley rats; male rats, 7.5 mg/kg oral 28 d): 9.7 ± 0.2 mg/dL
Cholesterol (Sprague Dawley rats; male rats, 7.5 mg/kg oral 28 d): 41.2 ± 6.3 mg/dL
Creatinine (Sprague Dawley rats; male rats, 7.5 mg/kg oral 28 d): 0.3 ± 0.0 mg/dL
GGT (Sprague Dawley rats; male rats, 7.5 mg/kg oral 28 d): <1 U/L
Globulin (Sprague Dawley rats; male rats, 7.5 mg/kg oral 28 d): 1.9 ± 0.1 g/dL
Glucose (Sprague Dawley rats; male rats, 7.5 mg/kg oral 28 d): 178.0 ± 25.7 mg/dL
HDL-C (Sprague Dawley rats; male rats, 7.5 mg/kg oral 28 d): 12.8 ± 1.5 mg/dL
K^+ (Sprague Dawley rats; male rats, 7.5 mg/kg oral 28 d): 6.5 ± 0.3
LDH (Sprague Dawley rats; male rats, 7.5 mg/kg oral 28 d): 219.6 ± 139.5 U/L
Mg^2+ (Sprague Dawley rats; male rats, 7.5 mg/kg oral 28 d): 2.0 ± 0.1
Na^+ (Sprague Dawley rats; male rats, 7.5 mg/kg oral 28 d): 141.8 ± 0.8
Phosphate (Sprague Dawley rats; male rats, 7.5 mg/kg oral 28 d): 9.1 ± 0.9 mg/dL
TB (Sprague Dawley rats; male rats, 7.5 mg/kg oral 28 d): <0.1 mg/dL
TG (Sprague Dawley rats; male rats, 7.5 mg/kg oral 28 d): 33.0 ± 8.1 mg/dL
TP (Sprague Dawley rats; male rats, 7.5 mg/kg oral 28 d): 5.3 ± 0.2
UA (Sprague Dawley rats; male rats, 7.5 mg/kg oral 28 d): 1.5 ± 0.1 mg/dL
A/G (Sprague Dawley rats; [8]): 1.8 ± 0.1
ALP (Sprague Dawley rats; [8]): 256.8 ± 44.0 U/L
ALT (Sprague Dawley rats; [8]): 27.6 ± 2.1 U/L
AST (Sprague Dawley rats; [8]): 60.2 ± 3.3 U/L
Albumin (Sprague Dawley rats; [8]): 3.5 ± 0.2 g/dL
Amylase (Sprague Dawley rats; [8]): 2016.4 ± 289.7 U/L
BUN (Sprague Dawley rats; [8]): 11.6 ± 1.8 mg/dL
CK (Sprague Dawley rats; [8]): 156.4 ± 31.1 U/L
Ca^2+ (Sprague Dawley rats; [8]): 9.9 ± 0.4 mg/dL
Cholesterol (Sprague Dawley rats; [8]): 44.0 ± 2.5 mg/dL
Cl^− (Sprague Dawley rats; [8]): 104.6 ± 2.1
Creatinine (Sprague Dawley rats; [8]): 0.3 ± 0.0 mg/dL
GGT (Sprague Dawley rats; [8]): <1 U/L
Globulin (Sprague Dawley rats; [8]): 2.0 ± 0.2 g/dL
Glucose (Sprague Dawley rats; [8]): 178.0 ± 14.5 mg/dL
HDL-C (Sprague Dawley rats; [8]): 15.2 ± 2.8 mg/dL
K^+ (Sprague Dawley rats; [8]): 6.4 ± 0.6
LDH (Sprague Dawley rats; [8]): 109.8 ± 33.5 U/L
Mg^2+ (Sprague Dawley rats; [8]): 2.1 ± 0.2
Na^+ (Sprague Dawley rats; [8]): 141.4 ± 2.3
Phosphate (Sprague Dawley rats; [8]): 9.6 ± 1.6 mg/dL
TB (Sprague Dawley rats; [8]): <0.1 mg/dL
TG (Sprague Dawley rats; [8]): 46.2 ± 8.3 mg/dL
TP (Sprague Dawley rats; [8]): 5.5 ± 0.4
UA (Sprague Dawley rats; [8]): 1.6 ± 0.3 mg/dL
